According to patent US6461997B1, “Triazole sulfones having herbicidal activity” (Monsanto Technology LLC, priority 1999, dated 2002):

Each molecule was assayed on AMARE (redroot pigweed) (assay: Pre-emergence herbicidal activity, warm season). Details: GR80 = lowest tested rate (300, 100, 30, 10 g/ha) with 80% or greater inhibition; approx. 14 days after treating; 30/21° C.
Type: in vivo, Amaranthus retroflexus
Outline: (§1)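 GR80 values derive from percent inhibition relative to untreated plants, read roughly 14 days after sowing and pre-emergence soil-surface treatment (compound in 50:50 acetone/water; rates typically 10, 30, 100, 300 g/ha). Warm-season weeds grew at 30/21° C day/night, cool-season ones at 18/13° C; an asterisk marks activity without reaching 80% at the highest rate.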

SMILES	Pre-emergence activity (GR80) AMARE [g/ha]
CCN(CC)C(=O)n1cnc(S(=O)(=O)C(F)(F)SCc2ccccc2)n1 [Example 10]	100

What follows are molecules tested on PANMI (wild proso millet) (assay: Pre-emergence herbicidal activity, warm season). Details: GR80 = lowest tested rate (300, 100, 30, 10 g/ha) with 80% or greater inhibition; approx. 14 days after treating; 30/21° C.
Type: in vivo, Panicum miliaceum
Outline: (§2)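 Activity is expressed as the rate giving 80% inhibition, with 300, 100, 30 and 10 g/ha typically tested. An asterisk marks activity short of 80% at the top rate. Warm-season grasses were held at 30/21 °C; cool-season blackgrass and wild buckwheat at 18/13 °C; scoring at about 14 days.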

SMILES	Pre-emergence activity (GR80) PANMI [g/ha]
CCN(CC)C(=O)n1cnc(S(=O)(=O)C(F)(F)SCc2ccccc2)n1 [Example 10]	300

The molecules below were run on BRAPP (broadleaf signalgrass) (assay: Pre-emergence herbicidal activity, warm season). Details: GR80 = lowest tested rate (300, 100, 30, 10 g/ha) with 80% or greater inhibition; approx. 14 days after treating; 30/21° C.
Type: in vivo, Brachiaria platyphylla
Outline: as §1

SMILES	Pre-emergence activity (GR80) BRAPP [g/ha]
CCN(CC)C(=O)n1cnc(S(=O)(=O)C(F)(F)SCc2ccccc2)n1 [Example 10]	300

The molecules below were run on DIGSA (large crabgrass) (assay: Pre-emergence herbicidal activity, warm season). Details: GR80 = lowest tested rate (300, 100, 30, 10 g/ha) with 80% or greater inhibition; approx. 14 days after treating; 30/21° C.
Type: in vivo, Digitaria sanguinalis
Outline: as §2

SMILES	Pre-emergence activity (GR80) DIGSA [g/ha]
CCN(CC)C(=O)n1cnc(S(=O)(=O)C(F)(F)SCc2ccccc2)n1 [Example 10]	100

These molecules were tested on SETVI (green foxtail) (assay: Pre-emergence herbicidal activity, cool season). Details: GR80 = lowest tested rate (300, 100, 30, 10 g/ha) with 80% or greater inhibition; approx. 14 days after treating; 18/13° C.
Type: in vivo, Setaria viridis
Outline: as §1

SMILES	Pre-emergence activity (GR80) SETVI [g/ha]
CCN(CC)C(=O)n1cnc(S(=O)(=O)C(F)(F)SCc2ccccc2)n1 [Example 10]	300

What follows are molecules tested on AGSST (creeping bentgrass) (assay: Pre-emergence herbicidal activity, cool season). Details: GR80 = lowest tested rate (300, 100, 30, 10 g/ha) with 80% or greater inhibition; approx. 14 days after treating; 18/13° C.
Type: in vivo, Agrostis stolonifera
Outline: as §1

SMILES	Pre-emergence activity (GR80) AGSST [g/ha]
CCN(CC)C(=O)n1cnc(S(=O)(=O)C(F)(F)SCc2ccccc2)n1 [Example 10]	100

Each molecule was assayed on DIGSA (large crabgrass) (assay: Pre-plant incorporated (PPI) herbicidal activity, warm season). Details: PPI application, 10 g/ha.
Type: in vivo, Digitaria sanguinalis
Procedure: (§3) In another set of tests, the pre-plant incorporated (PPI) activity of compounds of this invention was evaluated on the same species as for the pre-emergence tests described above. In the PPI tests the following procedure, designed to simulate PPI application, was used.
(§4) A pre-prepared topsoil mixture (described above) was placed in a pot and compacted to a depth of 1.0 to 1.25 cm from the top of the pot. Seeds of each of several monocotyledonous and dicotyledonous annual plant species were placed on top of the soil. A sufficient quantity of soil to cover the seeds and level fill the pot was weighed into an open container. A known amount of the test compound was dissolved or suspended in an organic solvent and applied by spraying to this cover soil. The cover soil was thoroughly mixed to distribute the test compound throughout the cover soil, and was then applied as a cover layer over the seeds. Untreated soil was used as a cover layer for control pots. After treatment the plants were placed in a greenhouse where they received 0.64 cm of overhead irrigation. All subsequent watering consisted of a light overhead mist and/or subirrigation as needed for germination and growth. Tables 9 and 10 below relate to warm season plant species which were placed after pre-emergence treatment in a greenhouse with a 30/21° C. day/night temperature regime. Tables 11 and 12 below relates to cool season plant species placed after pre-emergence treatment in a greenhouse or growth chamber with an 18/13° C. day/night temperature regime. Only the compounds of Examples 1, 6, 8, 11, 13 and 15-20 were included in PPI tests.
(§5) Approximately 14 days after planting and treating, the plants were observed and herbicidal efficacy recorded as percent inhibition by comparison with untreated plants.

SMILES	Percent inhibition DIGSA [%]
CCN(CC)C(=O)n1cnc(S(=O)(=O)C(F)(F)SCc2ccccc2)n1 [Example 10]	0

Same assay, conditions: PPI application, 30 g/ha

SMILES	Percent inhibition DIGSA [%]
CCN(CC)C(=O)n1cnc(S(=O)(=O)C(F)(F)SCc2ccccc2)n1 [Example 10]	0

Same assay, conditions: PPI application, 100 g/ha

SMILES	Percent inhibition DIGSA [%]
CCN(CC)C(=O)n1cnc(S(=O)(=O)C(F)(F)SCc2ccccc2)n1 [Example 10]	90

Same assay, conditions: PPI application, 300 g/ha

SMILES	Percent inhibition DIGSA [%]
CCN(CC)C(=O)n1cnc(S(=O)(=O)C(F)(F)SCc2ccccc2)n1 [Example 10]	85

Same assay, conditions: PPI application, 900 g/ha

SMILES	Percent inhibition DIGSA [%]
CCN(CC)C(=O)n1cnc(S(=O)(=O)C(F)(F)SCc2ccccc2)n1 [Example 10]	100

These molecules were tested on GALAP (catchweed bedstraw) (assay: Pre-plant incorporated (PPI) herbicidal activity, cool season). Details: weed, PPI application, 10 g/ha.
Type: in vivo, Galium aparine
Procedure: as §3, §4, §5

SMILES	Percent inhibition GALAP [%]
CCN(CC)C(=O)n1cnc(S(=O)(=O)C(F)(F)SCc2ccccc2)n1 [Example 10]	0

Same assay, conditions: weed, PPI application, 30 g/ha

SMILES	Percent inhibition GALAP [%]
CCN(CC)C(=O)n1cnc(S(=O)(=O)C(F)(F)SCc2ccccc2)n1 [Example 10]	0

Same assay, conditions: weed, PPI application, 100 g/ha

SMILES	Percent inhibition GALAP [%]
CCN(CC)C(=O)n1cnc(S(=O)(=O)C(F)(F)SCc2ccccc2)n1 [Example 10]	80

Same assay, conditions: weed, PPI application, 300 g/ha

SMILES	Percent inhibition GALAP [%]
CCN(CC)C(=O)n1cnc(S(=O)(=O)C(F)(F)SCc2ccccc2)n1 [Example 10]	50

Same assay, conditions: weed, PPI application, 900 g/ha

SMILES	Percent inhibition GALAP [%]
CCN(CC)C(=O)n1cnc(S(=O)(=O)C(F)(F)SCc2ccccc2)n1 [Example 10]	100

Each molecule was assayed on LOLMG (annual ryegrass) in the same assay as above. Details: weed, PPI application, 10 g/ha.
Type: in vivo, Lolium multiflorum
Procedure: as §3, §4, §5

SMILES	Percent inhibition LOLMG [%]
CCN(CC)C(=O)n1cnc(S(=O)(=O)C(F)(F)SCc2ccccc2)n1 [Example 10]	0

Same assay, conditions: weed, PPI application, 30 g/ha

SMILES	Percent inhibition LOLMG [%]
CCN(CC)C(=O)n1cnc(S(=O)(=O)C(F)(F)SCc2ccccc2)n1 [Example 10]	0

Same assay, conditions: weed, PPI application, 100 g/ha

SMILES	Percent inhibition LOLMG [%]
CCN(CC)C(=O)n1cnc(S(=O)(=O)C(F)(F)SCc2ccccc2)n1 [Example 10]	65

Same assay, conditions: weed, PPI application, 300 g/ha

SMILES	Percent inhibition LOLMG [%]
CCN(CC)C(=O)n1cnc(S(=O)(=O)C(F)(F)SCc2ccccc2)n1 [Example 10]	100

Same assay, conditions: weed, PPI application, 900 g/ha

SMILES	Percent inhibition LOLMG [%]
CCN(CC)C(=O)n1cnc(S(=O)(=O)C(F)(F)SCc2ccccc2)n1 [Example 10]	99

Each molecule was assayed on AEGCY (jointed goatgrass) in the same assay as above. Details: weed, PPI application, 10 g/ha.
Type: in vivo, Aegilops cylindrica
Procedure: as §3, §4, §5

SMILES	Percent inhibition AEGCY [%]
CCN(CC)C(=O)n1cnc(S(=O)(=O)C(F)(F)SCc2ccccc2)n1 [Example 10]	0

Same assay, conditions: weed, PPI application, 30 g/ha

SMILES	Percent inhibition AEGCY [%]
CCN(CC)C(=O)n1cnc(S(=O)(=O)C(F)(F)SCc2ccccc2)n1 [Example 10]	0

Same assay, conditions: weed, PPI application, 100 g/ha

SMILES	Percent inhibition AEGCY [%]
CCN(CC)C(=O)n1cnc(S(=O)(=O)C(F)(F)SCc2ccccc2)n1 [Example 10]	20

Same assay, conditions: weed, PPI application, 300 g/ha

SMILES	Percent inhibition AEGCY [%]
CCN(CC)C(=O)n1cnc(S(=O)(=O)C(F)(F)SCc2ccccc2)n1 [Example 10]	30

Same assay, conditions: weed, PPI application, 900 g/ha

SMILES	Percent inhibition AEGCY [%]
CCN(CC)C(=O)n1cnc(S(=O)(=O)C(F)(F)SCc2ccccc2)n1 [Example 10]	20

Each molecule was assayed on AGRRE (quackgrass (seedling)) in the same assay as above. Details: weed, PPI application, 10 g/ha.
Type: in vivo, Elymus repens
Procedure: as §3, §4, §5

SMILES	Percent inhibition AGRRE [%]
CCN(CC)C(=O)n1cnc(S(=O)(=O)C(F)(F)SCc2ccccc2)n1 [Example 10]	0

Same assay, conditions: weed, PPI application, 30 g/ha

SMILES	Percent inhibition AGRRE [%]
CCN(CC)C(=O)n1cnc(S(=O)(=O)C(F)(F)SCc2ccccc2)n1 [Example 10]	0

Same assay, conditions: weed, PPI application, 100 g/ha

SMILES	Percent inhibition AGRRE [%]
CCN(CC)C(=O)n1cnc(S(=O)(=O)C(F)(F)SCc2ccccc2)n1 [Example 10]	0

Same assay, conditions: weed, PPI application, 300 g/ha

SMILES	Percent inhibition AGRRE [%]
CCN(CC)C(=O)n1cnc(S(=O)(=O)C(F)(F)SCc2ccccc2)n1 [Example 10]	0

Same assay, conditions: weed, PPI application, 900 g/ha

SMILES	Percent inhibition AGRRE [%]
CCN(CC)C(=O)n1cnc(S(=O)(=O)C(F)(F)SCc2ccccc2)n1 [Example 10]	50

Each molecule was assayed on POAAN (annual bluegrass) in the same assay as above. Details: weed, PPI application, 10 g/ha.
Type: in vivo, Poa annua
Procedure: as §3, §4, §5

SMILES	Percent inhibition POAAN [%]
CCN(CC)C(=O)n1cnc(S(=O)(=O)C(F)(F)SCc2ccccc2)n1 [Example 10]	0

Same assay, conditions: weed, PPI application, 30 g/ha

SMILES	Percent inhibition POAAN [%]
CCN(CC)C(=O)n1cnc(S(=O)(=O)C(F)(F)SCc2ccccc2)n1 [Example 10]	10

Same assay, conditions: weed, PPI application, 100 g/ha

SMILES	Percent inhibition POAAN [%]
CCN(CC)C(=O)n1cnc(S(=O)(=O)C(F)(F)SCc2ccccc2)n1 [Example 10]	95

Same assay, conditions: weed, PPI application, 300 g/ha

SMILES	Percent inhibition POAAN [%]
CCN(CC)C(=O)n1cnc(S(=O)(=O)C(F)(F)SCc2ccccc2)n1 [Example 10]	100

Same assay, conditions: weed, PPI application, 900 g/ha

SMILES	Percent inhibition POAAN [%]
CCN(CC)C(=O)n1cnc(S(=O)(=O)C(F)(F)SCc2ccccc2)n1 [Example 10]	100
